Test system: pancreatic HIT cells (β-cell clusters)
Type: cell-based, hamster
Protocol: For trypsinization and splitting, trypsin-EDTA solution was added to a culture flask and incubated for 30 s while triturating with a transfer pipette. Serum was added to stop the digestive action of trypsin. Supernatant was removed after centrifugation at 1000 rpm for 2 min. Culture medium was added, and cells plated into glass bottom petri dishes (35 mm diameter, Matek, Ashland, Mass.) for incubation and subsequent observation.
Cell clusters, approximating to spheroids, appeared approximately two weeks after splitting. Their size ranged from 70 μm to 300 μm in diameter, depending on the time in culture.
A glucose microsensor was positioned adjacent to the cluster and self-referenced perpendicularly to the contour of the expected glucose gradient. The glucose sensor was self-referenced at 0.2 Hz between 60 and 80 μm (Δr of 20 μm) from the cluster surface to avoid H2O2 boundary artifacts. Flux measurements were done in HEPES-buffered solution containing 118 mM NaCl, 5.4 mM KCl, 2.4 mM CaCl2, 1.2 mM MgSO4, 1.2 mM KH2PO4, and 5 mM NaHCO3. All measurements were made with 5 mM glucose in the medium. To ensure that the apparent glucose signal was due to the glucose gradient and not the oxygen gradient, oxygen was provided by a ˜10 μm pipette located 10 μm from the cell cluster and approximately 50 μm from the glucose sensor to reverse the biological oxygen gradient. […] In situ calibration of the sensor was performed immediately after the flux measurements. Data were only accepted if sensor drift was less than ±5% over the experimental period, which was typically 30 min. All data were reported as means ±SEM unless otherwise mentioned.
The glucose sensor was self-referenced at 0.2 Hz between 60 and 80 μm (Δr of 20 μm) from the cluster surface. The aliquot of FCCP was dropped on the meniscus of the medium to minimize disturbance of the existing glucose gradient. All measurements were performed with 5 mM glucose in the bath.
Glucose metabolism was further studied with rotenone, an inhibitor of NADH-dependent respiration in mitochondria. […]

Compound | decrease in the level of glucose consumption (10 μM rotenone, after 10 min, 5 mM glucose in bath, oxygen source present, four clusters) [%] | glucose flux relative to the basal condition | initial increase in glucose flux [%]
C=C(C)[C@H]1Cc2c(ccc3c2O[C@@H]2COc4cc(OC)c(OC)cc4[C@@H]2C3=O)O1 [Rotenone, rotenone] | 74±5 | – | –
trifluoromethoxy carbonylcyanide phenylhydrazine [FCCP] | – | 56±6 % of the basal condition | 93±16

Reference: patent publication US6802957B2, “Self-referencing enzyme-based microsensor and method of use” (priority 2001, dated 2004)
